Where a SMILES comes first, the peptide text is derived from it. Bridges are numbered along the chain shown (N, C = ends). The star is where a group is joined. DOTA = O=C(O)CN1CCN(CC(=O)O)CCN(CC(=O)*)CCN(CC(=O)O)CC1
Columns and labels:
[1] = test system: brain metastases derived from breast cancer and NSCLC; test: Histochemical peptide staining of brain metastases; set-up: species or system human
Protocol: Staining with the biotinylated PEG(12)-SFITGv6 peptide was performed on acetone-fixed cryosections (5 μm) of tumor tissues after blocking of unspecific binding using the Avidin/Biotin Blocking Kit (SP-2001, Vector Laboratories). A stock solution of the lyophilized peptide was prepared by dilution in 5% aqueous DMSO. Slices were incubated overnight at 4° C. with 10^-5 M peptide concentration in antibody diluent (DAKO). Detection of bound peptide was carried out with the Vectastain Elite ABC Kit (PK-6100, Vector Laboratories) according to manufacturer's protocol. Peptide specificity was ensured by a scrambled (GRD) PEG(12)-SFITGv6 derivate, the somatostatin receptor ligand DOTATOC and negative controls (without peptide or primary antibody) Staining results were assessed by bright field microscopy (BX50) with the SC30 camera and the cell Sense software (all Olympus).

[2] = test system: metastasized pancreatic cancer; test: PET/CT and scintigraphy of pancreatic cancer patient; format: in vivo, human; conditions: 1 day after 6.5 GBq
Protocol: PET/CT scans of tumor patients and body scintigraphy were performed as described in Example 1.

| Compound | histochemical peptide staining result ([1]; breast cancer BM (NCH640k)) | histochemical peptide staining result ([1]; lung BM (NCH2407)) | scintigraphic accumulation [2] |
| --- | --- | --- | --- |
| CSCC[C@@H]1NC(=O)[C@H](CC(C)C)NC(=O)[C@H](CC(=O)O)NC(=O)CNC(=O)[C@H](CCCNC(=N)N)NC(=O)[C@H](Cc2ccccc2)NC(=O)[C@H]([C@@H](C)O)NC(=O)[C@@H](NC(=O)[C@H](CCCNC(=N)N)NC(=O)CN)CSSC[C@@H](C(=O)N[C@@H](Cc2ccc(O)cc2)C(=O)N2CCC[C@H]2C(=O)N[C@@H](CC(=O)O)C(=O)O)NC(=O)[C@H](CC(C)C)NC(=O)[C@H](CCC(N)=O)NC1=O [SFITGv6, NH2-G-R-C1-T-F-R-G-D-L-M-Q-L-C1-Y-P-D-COOH] (H-GRCTFRGDLMQLCYPD-OH; disulfide 3-13) | moderate but distinct tumor cell staining | very strong tumor-specific staining pattern | – |
| CC(C)C[C@@H]1NC(=O)[C@H](CC(=O)O)NC(=O)CNC(=O)[C@H](CCCNC(=N)N)NC(=O)CNC(=O)[C@H]([C@@H](C)O)NC(=O)[C@@H](NC(=O)[C@H](CCCNC(=N)N)NC(=O)CNC(=O)CN2CCN(CC(=O)O)CCN(CC(=O)O)CCN(CC(=O)O)CC2)CSSC[C@@H](C(=O)N[C@@H](Cc2ccc(O)cc2)C(=O)N2CCC[C@H]2C(=O)N[C@@H](CC(=O)O)C(N)=O)NC(=O)[C@H](CC(C)C)NC(=O)[C@H](CCCNC(=N)N)NC(=O)CNC1=O [^177Lu-DOTA-SFLAP3, metal not drawn] ({DOTA}-GRCTGRGDLGRLCYPD-NH2; disulfide 3-13; N-terminus and C-terminus assumed) | – | – | accumulation in the metastatic sites |
